Laboratory results taken from patent US20240116988A1, “ANTI-ROR1 MACROCYCLIC PEPTIDES AND COMPOSITIONS” (BRISTOL-MYERS SQUIBB COMPANY, priority 2022, published 2024).
Where two headings read alike, the source gives them in different places. Starred links: 1 amine or outer side, 2 acyl side, 3 side chain; linkers in the order of their positions; H or OH if unused. Positions of bridges follow the written chain, without caps; N, C: chain ends. Non-standard residues stand in square brackets, D forms with d. Residues, ends and D or L forms follow the SMILES beside them. ξ: configuration not given here. X1 = CC(C)[C@H](CC(=O)[C@@H](N[*:1])C(C)C)C(=O)[*:2]; 2Nal = N[C@@H](Cc1ccc2ccccc2c1)C(=O)O; NMeF = CN[C@@H](Cc1ccccc1)C(=O)O; PEG5 = NCCOCCOCCOCCOCCOCCC(=O)O; NMeNle = CCCC[C@H](NC)C(=O)O; Phg = N[C@H](C(=O)O)c1ccccc1; ξY = NC(Cc1ccc(O)cc1)C(=O)O; NMeA = CN[C@@H](C)C(=O)O; ξF = NC(Cc1ccccc1)C(=O)O; AEEA = NCCOCCOCC(=O)O; Sar = CNCC(=O)O

Target: T1, human ROR1 (Homo sapiens, UniProt Q01973)
T1 construct: host or cells: HEK 293T cells, Tet-on system induced with doxycycline
Assay: ROR1 high content cell-based binding assay
Settings: read-out: ROR1 Binding 293T Human HC Cell Based Assay IC50
Description: ROR1 high content cell-based binding assay: Human embryonic kidney 293T cells (293T) expressing human ROR1 with Tet-on system by doxycycline were used (Arctic-488134) for the assessment of inhibition of the binding of fluorescently-labeled competing peptide (“Probe”) that specifically binds to human ROR1. […] Cryopreserved vials were thawed in a 37° C. water bath. Cells were washed in assay culture media [DMEM (Life Technologies Inc. Cat. […] Cat. No. 15140-122) and […] dox] and diluted 1.0×10^5 cells/mL. Cells were seeded into PDL-coated 384 well plates (BD Falcon Cat. No. 356663) at 2,000 cells/20 μL. Plates were allowed to incubate for 10 minutes at room temperature and then transferred to a 37° C./5% CO2 incubator for overnight incubation. The next day, 125 nL of the test compound was added using an ECHO followed by the addition of 5 μL/well of 5-FAM-labeled probe to cells at a final concentration of 30 nM. Sample were incubated for 1 hour at 37° C. for 1 hour, followed by 3 washes in […] of dPBS. Cells were fixed by adding 8% (w/v) formaldehyde (Sigma Cat. No. 252549), 20 μg/mL Hoechst (Thermo Scientific Cat. No. 62249) in PBS for 20 minutes at room temperature. The plates were washed 3 more times in dPBS and 15 μl of PBS was left in the wells following the last wash. The plates were sealed, and data was using obtained using a CellInsight NXT High Content Screening Platform IC903000 (Thermo Scientific).

T1 sequence (Q01973 30-937): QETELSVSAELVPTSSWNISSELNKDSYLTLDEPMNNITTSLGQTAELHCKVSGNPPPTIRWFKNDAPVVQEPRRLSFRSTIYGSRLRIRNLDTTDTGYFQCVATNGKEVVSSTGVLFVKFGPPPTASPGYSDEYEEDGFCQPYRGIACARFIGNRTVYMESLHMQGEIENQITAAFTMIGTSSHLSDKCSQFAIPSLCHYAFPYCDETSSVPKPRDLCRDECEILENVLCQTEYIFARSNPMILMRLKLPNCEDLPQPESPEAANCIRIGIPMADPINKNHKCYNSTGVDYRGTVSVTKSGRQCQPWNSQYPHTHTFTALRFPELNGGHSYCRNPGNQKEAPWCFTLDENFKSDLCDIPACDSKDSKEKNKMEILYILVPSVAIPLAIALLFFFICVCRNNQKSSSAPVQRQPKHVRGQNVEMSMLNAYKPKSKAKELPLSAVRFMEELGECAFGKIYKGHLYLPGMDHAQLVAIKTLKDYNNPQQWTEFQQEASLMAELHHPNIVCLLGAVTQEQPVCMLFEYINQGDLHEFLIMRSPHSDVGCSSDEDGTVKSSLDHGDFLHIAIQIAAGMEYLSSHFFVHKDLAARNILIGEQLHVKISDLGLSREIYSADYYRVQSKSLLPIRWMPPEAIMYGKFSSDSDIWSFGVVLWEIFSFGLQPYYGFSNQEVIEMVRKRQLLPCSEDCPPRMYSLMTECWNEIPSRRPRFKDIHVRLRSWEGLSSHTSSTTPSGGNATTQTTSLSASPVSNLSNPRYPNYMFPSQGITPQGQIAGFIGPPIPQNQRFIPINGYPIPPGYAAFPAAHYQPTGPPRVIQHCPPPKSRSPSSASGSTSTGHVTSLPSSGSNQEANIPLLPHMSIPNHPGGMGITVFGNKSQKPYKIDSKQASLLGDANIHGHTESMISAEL

**Q.** `CC(C)C[C@@H]1NC(=O)[C@H](Cc2ccccc2)NC(=O)CSC[C@@H](C(N)=O)NC(=O)[C@H](C(C)C)NC(=O)[C@H](Cc2ccccc2)N(C)C(=O)[C@H](CC(C)C)NC(=O)[C@H](Cc2c[nH]c3ccccc23)NC(=O)CN(C)C(=O)CNC(=O)[C@H](C(C)C)NC(=O)[C@H](Cc2c[nH]c3ccccc23)NC1=O` [Example 1202] ({CH2CO}-FLWVG[Sar]WL[NMeF]VC-NH2; thioether N-11) was tested. Which IC50 did it give?
**A.** 67 nM

**Q.** Which IC50 does the source give for `CC(C)C[C@@H]1NC(=O)CNC(=O)[C@H](Cc2ccccc2)N(C)C(=O)CNC(=O)[C@H](Cc2ccc(O)cc2)NC(=O)[C@H](Cc2ccccc2)NC(=O)CSC[C@@H](C(N)=O)NC(=O)[C@H](Cc2c[nH]c3ccccc23)NC(=O)[C@H](Cc2ccc(O)cc2)NC1=O` [Example 1121] ({CH2CO}-FYG[NMeF]GLYWC-NH2; thioether N-9) here?
**A.** 378 nM

**Q.** Which IC50 does the source give for `CCCC[C@H]1C(=O)N[C@@H](CC(C)C)C(=O)N[C@H](C(=O)NCCOCCOCC(=O)N[C@@H](CCCCN)C(N)=O)CSCC(=O)N[C@@H](Cc2ccccc2)C(=O)N[C@@H](Cc2ccc(O)cc2)C(=O)N[C@@H](Cc2c[nH]c3ccccc23)C(=O)N[C@@H](CO)C(=O)N[C@@H](CO)C(=O)N[C@@H](CCCNC(=N)N)C(=O)N(C)[C@@H](C)C(=O)N[C@@H](Cc2c[nH]c3ccccc23)C(=O)N[C@@H](Cc2ccc(O)cc2)C(=O)N1C` [Example 1079] ({CH2CO}-FYWSSR[NMeA]WY[NMeNle]LC[AEEA]K-NH2; thioether N-12) here?
**A.** 25 nM

**Q.** For `CC(C)C[C@@H]1NC(=O)[C@H](Cc2ccc(O)cc2)NC(=O)[C@H](Cc2ccccc2)NC(=O)CSC[C@@H](C(=O)NCC(N)=O)NC(=O)[C@H](C)NC(=O)[C@H](Cc2ccccc2)N(C)C(=O)[C@H](Cc2ccc(O)cc2)NC(=O)[C@H](Cc2c[nH]c3ccccc23)NC(=O)CNC(=O)[C@H](CO)NC(=O)[C@H](Cc2ccc(O)cc2)NC(=O)[C@H](C(C)C)NC1=O` [Example 1042] ({CH2CO}-FYLVYSGWY[NMeF]ACG-NH2; thioether N-12), which IC50 is on record?
**A.** 31 nM

**Q.** For `CC(C)C[C@@H]1NC(=O)[C@H](Cc2c[nH]c3ccccc23)NC(=O)[C@H](Cc2ccccc2)NC(=O)[C@H](Cc2c[nH]c3ccccc23)NC(=O)CNC(=O)CNC(=O)[C@H](CC(C)C)NC(=O)[C@H](C(C)C)NC(=O)[C@H](CC(C)C)NC(=O)[C@H](Cc2ccc(O)cc2)NC(=O)[C@H](Cc2ccccc2)NC(=O)CSC[C@@H](C(=O)NCC(N)=O)NC1=O` [Example 1010] ({CH2CO}-FYLVLGGWFWLCG-NH2; thioether N-12), which IC50 is on record?
**A.** 821 nM

**Q.** With `CC(C)C[C@@H]1NC(=O)[C@H](Cc2c[nH]c3ccccc23)NC(=O)[C@H](Cc2ccccc2)NC(=O)[C@H](Cc2c[nH]c3ccccc23)NC(=O)CNC(=O)[C@H](CC(=O)O)NC(=O)[C@H](CCCNC(=N)N)NC(=O)[C@H](C(C)C)CC(=O)[C@H](C(C)C)NC(=O)[C@H](Cc2ccc(O)cc2)NC(=O)[C@H](Cc2ccccc2)NC(=O)CSC[C@@H](C(=O)NCC(N)=O)NC1=O` [Example 1011] ({CH2CO}-FY[X1]RDGWFWLCG-NH2; thioether N-11) as the compound, how does the IC50 read?
**A.** 168 nM

**Q.** Which IC50 does the source give for `CC[C@H](C)[C@@H]1NC(=O)CSC[C@@H](C(=O)NCC(N)=O)NC(=O)[C@H](CC(C)C)NC(=O)[C@H](Cc2ccccc2)N(C)C(=O)[C@H](Cc2ccc(O)cc2)NC(=O)[C@H](Cc2c[nH]c3ccccc23)NC(=O)CNC(=O)[C@H](CO)NC(=O)[C@H](Cc2ccc(O)cc2)NC(=O)[C@H](C(C)C)NC(=O)[C@H](CC(C)C)NC(=O)[C@H](Cc2ccc(O)cc2)NC1=O` [Example 1084] ({CH2CO}-IYLVYSGWY[NMeF]LCG-NH2; thioether N-12) here?
**A.** 227 nM

**Q.** Which IC50 does the source give for `CCCC[C@H]1C(=O)N[C@H](C(=O)NCC(N)=O)CSCC(=O)N[C@@H](Cc2ccccc2)C(=O)N[C@@H](Cc2ccc(O)cc2)C(=O)N[C@@H](Cc2c[nH]c3ccccc23)C(=O)N[C@@H](CO)C(=O)N[C@@H](CO)C(=O)N[C@@H](CCCNC(=N)N)C(=O)N(C)[C@@H](C)C(=O)N[C@@H](Cc2c[nH]c3ccccc23)C(=O)N[C@@H](Cc2ccc(O)cc2)C(=O)N[C@@H](CC(C)C)C(=O)N1C` [Example 1003] ({CH2CO}-FYWSSR[NMeA]WYL[NMeNle]CG-NH2; thioether N-12) here?
**A.** 8 nM

**Q.** How did the IC50 turn out when `CC(C)C[C@@H]1NC(=O)[C@H](Cc2ccccc2)NC(=O)CSC[C@@H](C(=O)NCC(N)=O)NC(=O)[C@H](C)NC(=O)[C@H](Cc2c[nH]c3ccccc23)NC(=O)[C@H](Cc2ccccc2)NC(=O)[C@H](Cc2c[nH]c3ccccc23)NC(=O)CNC(=O)[C@H](Cc2ccc(O)cc2)NC(=O)[C@H](CCCNC(=N)N)NC(=O)[C@H](C(C)C)NC(=O)[C@H](Cc2c[nH]c3ccccc23)NC1=O` [Example 1004] ({CH2CO}-FLWVRYGWFWACG-NH2; thioether N-12) was run?
**A.** 99 nM

**Q.** How did the IC50 turn out when `CC(C)C[C@@H]1NC(=O)[C@H](Cc2ccccc2)NC(=O)CSC[C@@H](C(=O)NCC(N)=O)NC(=O)[C@H](C)NC(=O)[C@H](Cc2ccc(O)cc2)NC(=O)[C@H](Cc2ccc(O)cc2)NC(=O)[C@H](Cc2c[nH]c3ccccc23)NC(=O)CNC(=O)[C@H](Cc2ccc(O)cc2)NC(=O)[C@H](CCCNC(=N)N)NC(=O)[C@H](C(C)C)NC(=O)[C@H](Cc2c[nH]c3ccccc23)NC1=O` [Example 1005] ({CH2CO}-FLWVRYGWYYACG-NH2; thioether N-12) was run?
**A.** 30 nM

**Q.** For `CC(C)C[C@@H]1NC(=O)[C@H](Cc2ccc(O)cc2)NC(=O)[C@H](Cc2ccccc2)NC(=O)CSC[C@@H](C(N)=O)NC(=O)[C@H](CC(C)C)NC(=O)[C@H](Cc2ccccc2)N(C)C(=O)[C@H](Cc2ccc(O)cc2)NC(=O)[C@H](Cc2c[nH]c3ccccc23)NC(=O)CNC(=O)[C@H](CO)NC(=O)[C@H](Cc2ccc(O)cc2)NC(=O)[C@H](C(C)C)NC1=O` [Example 1036] ({CH2CO}-FYLVYSGWY[NMeF]LC-NH2; thioether N-12), which IC50 is on record?
**A.** 7 nM

**Q.** `CC(C)C[C@@H]1NC(=O)[C@H](Cc2ccc(O)cc2)NC(=O)[C@H](Cc2ccccc2)NC(=O)CSC[C@@H](C(=O)NCCOCCOCCOCCOCCOCCC(=O)N[C@@H](CCCCN)C(N)=O)NC(=O)[C@H](CC(C)C)NC(=O)[C@H](Cc2ccccc2)N(C)C(=O)[C@H](Cc2ccc(O)cc2)NC(=O)[C@H](Cc2c[nH]c3ccccc23)NC(=O)CNC(=O)[C@H](CO)NC(=O)[C@H](Cc2ccc(O)cc2)NC(=O)[C@H](C(C)C)NC1=O` [Example 1083] ({CH2CO}-FYLVYSGWY[NMeF]LC[PEG5]K-NH2; thioether N-12) was tested. Which IC50 did it give?
**A.** 22 nM

**Q.** Which IC50 does the source give for `CC(C)C[C@@H]1NC(=O)[C@H](Cc2ccc(O)cc2)NC(=O)[C@H](Cc2ccc3ccccc3c2)NC(=O)CSC[C@@H](C(=O)NCC(N)=O)NC(=O)[C@H](CC(C)C)NC(=O)[C@H](Cc2ccccc2)N(C)C(=O)[C@H](Cc2ccc(O)cc2)NC(=O)[C@H](Cc2c[nH]c3ccccc23)NC(=O)CNC(=O)[C@H](CO)NC(=O)[C@H](Cc2ccc(O)cc2)NC(=O)[C@H](C(C)C)NC1=O` [Example 1092] ({CH2CO}-[2Nal]YLVYSGWY[NMeF]LCG-NH2; thioether N-12) here?
**A.** 43 nM

**Q.** `CC(C)C[C@@H]1NC(=O)[C@H](Cc2ccc(O)cc2)NC(=O)[C@H](c2ccccc2)NC(=O)CSC[C@@H](C(=O)NCC(N)=O)NC(=O)[C@H](CC(C)C)NC(=O)[C@H](Cc2ccccc2)N(C)C(=O)[C@H](Cc2ccc(O)cc2)NC(=O)[C@H](Cc2c[nH]c3ccccc23)NC(=O)CNC(=O)[C@H](CO)NC(=O)[C@H](Cc2ccc(O)cc2)NC(=O)[C@H](C(C)C)NC1=O` [Example 1093] ({CH2CO}-[Phg]YLVYSGWY[NMeF]LCG-NH2; thioether N-12) was tested. Which IC50 did it give?
**A.** 324 nM

**Q.** With `CC(C)C[C@@H]1NC(=O)[C@H](Cc2ccc(O)cc2)NC(=O)[C@H](CCC(N)=O)NC(=O)CSC[C@@H](C(=O)NCC(N)=O)NC(=O)[C@H](CC(C)C)NC(=O)[C@H](Cc2ccccc2)N(C)C(=O)[C@H](Cc2ccc(O)cc2)NC(=O)[C@H](Cc2c[nH]c3ccccc23)NC(=O)CNC(=O)[C@H](CO)NC(=O)[C@H](Cc2ccc(O)cc2)NC(=O)[C@H](C(C)C)NC1=O` [Example 1088] ({CH2CO}-QYLVYSGWY[NMeF]LCG-NH2; thioether N-12) as the compound, how does the IC50 read?
**A.** 83 nM

**Q.** Which IC50 does the source give for `CC(C)C[C@@H]1NC(=O)[C@H](Cc2ccc(O)cc2)NC(=O)[C@H](Cc2ccccc2)N(C)C(=O)CNC(=O)[C@H](Cc2ccc(O)cc2)NC(=O)C(Cc2ccccc2)NC(=O)CSC[C@@H](C(=O)NCC(N)=O)NC(=O)[C@H](Cc2c[nH]c3ccccc23)NC(=O)C(Cc2ccc(O)cc2)NC1=O` (some centres unmarked) [Example 1112] ({CH2CO}-[ξF]YG[NMeF]YL[ξY]WCG-NH2; thioether N-9) here?
**A.** 147 nM

**Q.** For `CC(C)C[C@@H]1NC(=O)[C@H](Cc2ccc(O)cc2)NC(=O)[C@H](Cc2ccccc2)NC(=O)CSC[C@@H](C(=O)NCC(N)=O)NC(=O)[C@H](CC(C)C)NC(=O)[C@H](Cc2ccccc2)N(C)C(=O)[C@H](Cc2ccc(O)cc2)NC(=O)[C@H](Cc2c[nH]c3ccccc23)NC(=O)CNC(=O)[C@H](CCC(=O)O)NC(=O)[C@H](Cc2ccc(O)cc2)NC(=O)[C@H](C(C)C)NC1=O` [Example 1028] ({CH2CO}-FYLVYEGWY[NMeF]LCG-NH2; thioether N-12), which IC50 (293T cells expressing human ROR1 (Tet-on, doxycycline), inhibition of binding of 5-FAM-labeled probe (Example 1300) at 30 nM, 1 hour at 37° C.) is on record?
**A.** 10 nM
